The supplement of paper PMC11061612

Key:
Test in all cases: combination Emax (second highest fraction inhibited in the dose matrix, 72 h); higher = more inhibition; extreme values may be limits of the assay
[1] = system: MDST8 (Colorectal Carcinoma)
Summary of the method: (§1)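 After 24 hours at 37°C and 5% CO2 in 1536-well plates, cells in DMEM/F12 or RPMI plus 10% FBS received two-drug dose matrices for 72 hours. Viability came from CellTiter-Glo 2.0 luminescence and was scaled as inhibition, anchored at 0 by vehicle wells and at 1 by blank wells. Combination Emax is taken as the second-highest inhibition in the matrix, and Bliss excess as the observed combination effect less EA + EB − EA·EB, with EA and EB the single-agent effects.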

[2] = system: COLO-320-HSR (Colorectal Carcinoma)
Summary of the method: as §1

[3] = system: COR-L311 (Small Cell Lung Carcinoma)
Summary of the method: as §1

[4] = system: KARPAS-422 (B-Cell Non-Hodgkin's Lymphoma)
Summary of the method: as §1

[5] = system: NCI-H2066 (Squamous Cell Lung Carcinoma)
Summary of the method: as §1

[6] = system: SK-MES-1 (Squamous Cell Lung Carcinoma)
Summary of the method: as §1

[7] = system: PANC-10-05 (Pancreatic Carcinoma)
Summary of the method: as §1

A498 (Kidney Carcinoma) = system: A498 (Kidney Carcinoma)
Summary of the method: as §1

ARH-77 (Non-Cancerous) = system: ARH-77 (Non-Cancerous)
Summary of the method: as §1

8-MG-BA (Glioblastoma) = system: 8-MG-BA (Glioblastoma)
Summary of the method: as §1

Hs-445 (Non-Cancerous) = system: Hs-445 (Non-Cancerous)
Summary of the method: as §1

[8] = system: NCI-H2141 (Small Cell Lung Carcinoma)
Summary of the method: as §1

[9] = system: ECC10 (Gastric Carcinoma)
Summary of the method: as §1

[10] = system: A3-KAW (B-Cell Non-Hodgkin's Lymphoma)
Summary of the method: as §1

[11] = system: TT2609-C02 (Thyroid Gland Carcinoma)
Summary of the method: as §1

[12] = system: NCI-H64 (Small Cell Lung Carcinoma)
Summary of the method: as §1

IGR-37 (Melanoma) = system: IGR-37 (Melanoma)
Summary of the method: as §1

NCI-H2591 (Mesothelioma) = system: NCI-H2591 (Mesothelioma)
Summary of the method: as §1

[13] = system: BICR22 (Oral Cavity Carcinoma)
Summary of the method: as §1

[14] = system: NCI-H1693 (Lung Adenocarcinoma)
Summary of the method: as §1

In the case of `NC1(C(=O)N[C@@H](CCO)c2ccc(Cl)cc2)CCN(c2ncnc3[nH]ccc23)CC1` [Capivasertib] + CC(C)n1c(=O)n(C)c2cnc3cc(F)c(-c4ccc(OCCCN5CCCCC5)nc4)cc3c21 [AZD1390] (first compound max 10 µM, 7x7, partner max 0.3 µM), the “combination Emax” value [1] is reported as 0.363, the “combination Emax” value [2] is reported as 0.172 and the “combination Emax” value [3] is reported as 0.685. For the same compound, the “combination Emax” value [4] was 0.507, the “combination Emax” value [5] was 0.553 and the “combination Emax” value [6] was 0.237. For the same compound, the “combination Emax” value [7] was 0.416, the “combination Emax” value (A498 (Kidney Carcinoma)) was 0.542 and the “combination Emax” value (ARH-77 (Non-Cancerous)) was 0.657. For the same compound, the “combination Emax” value (8-MG-BA (Glioblastoma)) was 0.387, the “combination Emax” value (Hs-445 (Non-Cancerous)) was 0.483 and the “combination Emax” value [8] was 0.249. For the same compound, the “combination Emax” value [9] was 0.274, the “combination Emax” value [10] was 0.49 and the “combination Emax” value [11] was 0.167. For the same compound, the “combination Emax” value [12] was 0.251, the “combination Emax” value (IGR-37 (Melanoma)) was 0.447 and the “combination Emax” value (NCI-H2591 (Mesothelioma)) was 0.182. The “combination Emax” value [13] was 0.312 and the “combination Emax” value [14] was 0.315.
For `CC1(C)CCC(CN2CCN(c3ccc(C(=O)NS(=O)(=O)c4ccc(NCC5CCOCC5)c([N+](=O)[O-])c4)c(Oc4cnc5[nH]ccc5c4)c3)CC2)=C(c2ccc(Cl)cc2)C1` [Venetoclax] + Cc1cc2ncnn2cc1Nc1ncc2c(n1)n(C1CCOCC1)c(=O)n2C [AZD7648] (first compound max 1 µM, 7x7, partner max 10 µM), the “combination Emax” value [1] was 0.245, the “combination Emax” value [2] was 0.174 and the “combination Emax” value [3] was 0.671. The “combination Emax” value [4] was 0.897, the “combination Emax” value [5] was 0.273 and the “combination Emax” value [6] was 0.155. For the same compound, the “combination Emax” value [7] was 0.332, the “combination Emax” value (A498 (Kidney Carcinoma)) was 0.381 and the “combination Emax” value (ARH-77 (Non-Cancerous)) was 0.559. For the same compound, the “combination Emax” value (8-MG-BA (Glioblastoma)) was 0.133, the “combination Emax” value (Hs-445 (Non-Cancerous)) was 0.405 and the “combination Emax” value [8] was 0.178. The “combination Emax” value [9] was 0.955, the “combination Emax” value [10] was 0.417 and the “combination Emax” value [11] was 0.341. For the same compound, the “combination Emax” value [12] was 0.255, the “combination Emax” value (IGR-37 (Melanoma)) was 0.556 and the “combination Emax” value (NCI-H2591 (Mesothelioma)) was 0.315. The “combination Emax” value [13] was 0.291 and the “combination Emax” value [14] was 0.26.
With `Cc1c2c(nn1C)CSCc1cc(n(C)n1)CSc1cc(c3ccccc3c1)OCCCc1c(C(=O)O)n(C)c3c-2c(Cl)ccc13` [AZD5991] + CC1(C)CCC(CN2CCN(c3ccc(C(=O)NS(=O)(=O)c4ccc(NCC5CCOCC5)c([N+](=O)[O-])c4)c(Oc4cnc5[nH]ccc5c4)c3)CC2)=C(c2ccc(Cl)cc2)C1 [Venetoclax] (first compound max 1 µM, 7x7, partner max 1 µM) the “combination Emax” value [1] was 0.228, the “combination Emax” value [2] was 0.841 and the “combination Emax” value [3] was 0.938. The “combination Emax” value [4] was 1, the “combination Emax” value [5] was 0.169 and the “combination Emax” value [6] was 0.146. For the same compound, the “combination Emax” value [7] was 0.188, the “combination Emax” value (A498 (Kidney Carcinoma)) was 0.361 and the “combination Emax” value (ARH-77 (Non-Cancerous)) was 0.859. The “combination Emax” value (8-MG-BA (Glioblastoma)) was 0.855, the “combination Emax” value (Hs-445 (Non-Cancerous)) was 0.962 and the “combination Emax” value [8] was 0.659. For the same compound, the “combination Emax” value [9] was 1, the “combination Emax” value [10] was 1 and the “combination Emax” value [11] was 0.178. For the same compound, the “combination Emax” value [12] was 0.359, the “combination Emax” value (IGR-37 (Melanoma)) was 0.282 and the “combination Emax” value (NCI-H2591 (Mesothelioma)) was 0.154. The “combination Emax” value [13] was 0.727 and the “combination Emax” value [14] was 0.143.
In the case of `CN(CCO)CC[C@H](CSc1ccccc1)Nc1ccc(S(=O)(=O)NC(=O)c2ccc(N3CCC([C@@H](O)c4ccccc4-c4ccc(Cl)cc4)CC3)cc2)cc1S(=O)(=O)C(F)(F)F` [AZD4320] + C[C@@H]1COCCN1C2=NC(=NC(=C2)C3(CC3)[S@](=N)(=O)C)C4=C5C=CNC5=NC=C4 [AZD6738] (first compound max 1 µM, 7x7, partner max 10 µM), the “combination Emax” value [1] is reported as 0.944, the “combination Emax” value [2] is reported as 0.543 and the “combination Emax” value [3] is reported as 1. The “combination Emax” value [4] was 0.979, the “combination Emax” value [5] was 0.603 and the “combination Emax” value [6] was 0.904. The “combination Emax” value [7] was 0.504, the “combination Emax” value (A498 (Kidney Carcinoma)) was 0.722 and the “combination Emax” value (ARH-77 (Non-Cancerous)) was 1. For the same compound, the “combination Emax” value (8-MG-BA (Glioblastoma)) was 0.864, the “combination Emax” value (Hs-445 (Non-Cancerous)) was 1 and the “combination Emax” value [8] was 0.943. For the same compound, the “combination Emax” value [9] was 1, the “combination Emax” value [10] was 0.986 and the “combination Emax” value [11] was 0.25. The “combination Emax” value [12] was 0.99, the “combination Emax” value (IGR-37 (Melanoma)) was 0.796 and the “combination Emax” value (NCI-H2591 (Mesothelioma)) was 0.612. For the same compound, the “combination Emax” value [13] was 0.897 and the “combination Emax” value [14] was 0.546.
With `CC1(C)CCC(CN2CCN(c3ccc(C(=O)NS(=O)(=O)c4ccc(NCC5CCOCC5)c([N+](=O)[O-])c4)c(Oc4cnc5[nH]ccc5c4)c3)CC2)=C(c2ccc(Cl)cc2)C1` [Venetoclax] + C[C@@H](Nc1cc(F)cc(F)c1)c1cc(C(=O)N(C)C)cc2c(=O)cc(N3CCOCC3)oc12 [AZD8186] (first compound max 1 µM, 7x7, partner max 3 µM) the “combination Emax” value [1] was 0.0955, the “combination Emax” value [2] was 0.135 and the “combination Emax” value [3] was 0.768. The “combination Emax” value [4] was 0.98, the “combination Emax” value [5] was 0.215 and the “combination Emax” value [6] was 0.257. For the same compound, the “combination Emax” value [7] was 0.244, the “combination Emax” value (A498 (Kidney Carcinoma)) was 0.632 and the “combination Emax” value (ARH-77 (Non-Cancerous)) was 0.724. The “combination Emax” value (8-MG-BA (Glioblastoma)) was 0.133, the “combination Emax” value (Hs-445 (Non-Cancerous)) was 0.612 and the “combination Emax” value [8] was 0.361. For the same compound, the “combination Emax” value [9] was 0.969, the “combination Emax” value [10] was 0.302 and the “combination Emax” value [11] was 0.162. For the same compound, the “combination Emax” value [12] was 0.335, the “combination Emax” value (IGR-37 (Melanoma)) was 0.46 and the “combination Emax” value (NCI-H2591 (Mesothelioma)) was 0.118. For the same compound, the “combination Emax” value [13] was 0.15 and the “combination Emax” value [14] was 0.129.
With `CN(C)CCCOc1ccc(-c2ccc3ncc4c(c3c2)n(C2CCOCC2)c(=O)n4C)cn1` [AZD0156] + CCN(CCO)CCCOc1ccc2c(Nc3cc(CC(=O)Nc4cccc(F)c4)[nH]n3)ncnc2c1 [AZD2811] (first compound max 1 µM, 7x7, partner max 1 µM) the “combination Emax” value [1] was 0.281, the “combination Emax” value [2] was 0 and the “combination Emax” value [3] was 0.815. The “combination Emax” value [4] was 0.641, the “combination Emax” value [5] was 0.192 and the “combination Emax” value [6] was 0.204. For the same compound, the “combination Emax” value [7] was 0.218, the “combination Emax” value (A498 (Kidney Carcinoma)) was 0.172 and the “combination Emax” value (ARH-77 (Non-Cancerous)) was 0.492. The “combination Emax” value (8-MG-BA (Glioblastoma)) was 0.215, the “combination Emax” value (Hs-445 (Non-Cancerous)) was 0.325 and the “combination Emax” value [8] was 0.289. For the same compound, the “combination Emax” value [9] was 0.856, the “combination Emax” value [10] was 0.572 and the “combination Emax” value [11] was 0.258. For the same compound, the “combination Emax” value [12] was 0.461, the “combination Emax” value (IGR-37 (Melanoma)) was 0.0663 and the “combination Emax” value (NCI-H2591 (Mesothelioma)) was 0.112. The “combination Emax” value [13] was 0.375 and the “combination Emax” value [14] was 0.142.
